The term IC50 denotes the concentration that inhibits the measured activity by half. The low end stands for greater potency in that assay, the high end for weaker potency in that assay. A word on the melting point: it is the temperature, or range, at which the solid turns liquid.

Data set [1] concerns HBV DNA. Description: Antiviral activity: inhibition of HBV DNA in supernatant of HepG 2.2.15 cells (dot blot hybridization). In kind it is cell-based. Conditions: Hepatitis B virus, HepG2.2.15, 192 h, 8 days incubation, 50% reduction of type B hepatitis-specific DNA band. Here is the method:
The antiviral effection of the compound of the present invention is determined according to the methods described by Sells, et al in (M. A. Sells M. L. Chen G. Proc. Natl. Acad. Sci. 1987, 84, 1005-1009) and Korba, et al (B. E. Korba, J. L. Gerin Antiviral Research 1992, 19, 55-70).
(§1) The antiviral test was carried out in a 96-cell microtiter plate. The first column of the plate only contained a culture medium for growth and HepG 2.2.15 cells, as a control. First, a stock solution (50 mmol) of a test compound was dissolved in DMSO, and further diluted with a culture medium for growth for HepG 2.2.15 cells. Usually, the compound of the present invention was transferred by suction at a test concentration of 100 μg/ml (the first test concentration) to each cell of the second column of the microtiter plate, and then diluted with the culture medium for growth plus 2% fetal bovine serum (25 μL), by 2 times once, up to […] at the maximum.
(§2) Then, 225 μL of a suspension of HepG 2.2.15 cells (5×10^4 cells/ml) in the culture medium fro growth plus 2% fetal bovine serum was added to each pore of the 96-cell microtiter plate.
(§3) The test mixture was incubated under the conditions of 37° C., 5% CO2 for 4 days. Then, the supernatant was removed by suction, and to each pore 225 μL of a new-prepared culture medium was added. Again, the compound of the present invention was added by a solution of 25 μL. The obtained mixture was further incubated for 4 days.
Thereafter, the supernatant was collected, and sucked in vacuum to a 96-cell dot blot chamber covered by nylon film (used in accordance with the directions for use given by the manufacturer).
After the supernatant was transferred onto the nylon film of the dot blot device (as described above), the supernatant of HepG 2.2.15 cells was denaturated (1.5 M NaCl/0.5 M NaOH), neutralized (3 M NaCl/0.5 M Tris. HCl, pH 7.5) and washed (2×SSC). Then, the filter film was kept at 120° C. for 2-4 hours, whereby DNA was baked on the filter film.
Usually, viral DNA of HepG 2.2.15 cells treated on the nylon filter film was detected by using a non-radioactive digoxigenin labelled type B hepatitis-specific DNA probe. Wherein, each time the probe was labelled with digoxigenin, purified and hybridized according to the directions for use given by the manufacturer.
Briefly, pre-hybridization and hybridization were conducted with 5×SSC, 1× blocking agent, 0.1% N-lauroyl sarcosine, 0.02% SDS and 100 μg sperm DNA of black carp. After pre-hybridization at 60° C. for 30 min, a specific hybridization (at 60° C. for 14 hr) was conducted with 20-40 ng/ml digoxigenin labelled denaturated I-BV specific DNA. Then, the filter film was washed, followed by digoxigenin antibody detection for HBV DNA. […]

Data set [2] concerns HepG 2.2.15 cells. In words: Cytotoxicity in HepG 2.2.15 cells (cell morphology by microscope after 8 days, Reed & Muench). In kind it is cell-based. Conditions: pathological change of cells after 8 days. Here is the method:
as §1, §2, §3
Prior to collection of the supernatant for determination of the antiviral effect, the cytotoxicity variation of HepG 2.2.15 cells was investigated by using optical microscopic technique or biochemical test method (e.g., Alamar Blue dyeing or Trypan Blue dyeing).
The substance-induced change in cytotoxicity in HepG 2.2.15 cells or change in inhibition of the cells could be determined by using, e.g., optical microscopic technique, and expressed by the change of cell morphology. Such substance-induced change, e.g., cell lysis, vacuolus formation or change in cell morphology, in HepG 2.2.15 cells was apparent as compared with the untreated cells. Taking the observed pathological change of cells as index, the pathological change of cells was observed under microscope after 8 days, a complete destroy being indicated as 4; 75% being indicated as 3; 50% being indicated as 2; 25% being indicated as 1; and no pathological change being indicated as 0. The average extents of pathological change of cells and the suppression percentages at various concentrations were calculated. According to Reed & Muench method, a half toxic concentration (TC50) and a maximum non-toxic concentration (TC0) were calculated.
TC50 refers to the concentration of the compound of the present invention when 50% of cells have a similar morphology to the corresponding cells as a control.

SMILES strings stand for the structures.

In turn, `CC1=C(C(=O)OCC(F)(F)F)[C@H](c2ccc(F)cc2Cl)N=C(c2nccs2)N1` [Example 3, (R)-4-(2-chloro-4-fluorophenyl)-6-methyl-2-(2-thiazolyl)-1,4-dihydropyrimidin-5-trifluoroethylcarboxylate] yielded an IC50 in data set [1] of 5100 nM. The same molecule showed a TD50 in data set [2] of 37.4 µM.
The corresponding values for `CCOC(=O)C1=C(C)NC(c2cncs2)=N[C@H]1c1ccc(F)cc1Cl` [Example 7, (R)-4-(2-chloro-4-fluorophenyl)-6-methyl-2-(5-thiazolyl)-1,4-dihydropyrimidin-5-ethylcarboxylate] are 1800 nM and above 12.5 µM.
Turning to `CCOC(=O)C1=C(C)NC(c2c(F)cc(F)cc2F)=N[C@H]1c1ccc(F)cc1Cl` [Example 5, (R)-4-(2-chloro-4-fluorophenyl)-6-methyl-2-(2,4,6-trifluorophenyl)-1,4-dihydropyrimidin-5-ethylcarboxylate], the melting point lay within 162 to 165 °C. The molecule also showed an IC50 in data set [1] of 1300 nM. Besides, in data set [2], the TD50 was 13.8 µM.
Take `CCOC(=O)C1=C(C)NC(c2nccs2)=N[C@H]1c1ccc(F)cc1Cl` [Example 2, (R)-4-(2-chloro-4-fluorophenyl)-6-methyl-2-(2-thiazolyl)-1,4-dihydropyrimidin-5-ethylcarboxylate]: the IC50 in data set [1] is below 800 nM. Also, the TD50 in data set [2] is above 62.9 µM.
`CC1=C(C(=O)N[C@H](C)c2ccccc2)[C@H](c2ccc(F)cc2Cl)N=C(c2nccs2)N1` showed a melting point of 224 to 226 °C.

(Values after patent publication US8329902B2, “Optically pure dihydropyrimidine compounds and their uses for the preparation of a medicament for treatment and prevention of viral diseases” (Beijing Molecule Science And Technology Co., Ltd., priority 2006, dated 2012).)
